From US10130634B2, “Therapeutic agent for ophthalmic disease” (MITSUBISHI TANABE PHARMA CORPORATION, priority 2013, dated 2018) come the findings set out here.

The structures appear in SMILES notation.

This assay concerns choroidal neovascularization (CNV). Description: laser irradiation-induced choroidal neovascularization mouse model (CNV model). It is filed as in vivo, male C57BL/6J mouse. As to conditions: oral 20 mg/kg, once on laser-induction day then twice per day; compared to vehicle (0.5% hydroxypropylmethylcellulose) oral group; t-test p<0.05; FIG. 1. The protocol: As a result, VEGF is produced, and a new blood vessel is developed. Therefore, the CNV model is an experimental model showing the efficacy on a disease associated with ocular angiogenesis via VEGF.
Using (2S)-[4-(carboxymethyl)thiazol-2-ylthio]-N-{[4-(3,4-dichlorobenzyl)morpholin-2-yl]methyl}acetamide hydrobromide as a test compound, the following experiment was performed.
Laser was irradiated (6 spot irradiation) on one eye of male C57BL/6J mouse (7-week-old) to experimentally induce CNV.
The mouse was intramuscularly administered (1 mL/kg) with a ketamine hydrochloride/xylazine hydrochloride (1:1, v/v) mixed solution into the thigh and, after systemic anesthesia, mydriasis was induced with mydriatic eye drops, and laser irradiation (wavelength 532 nm, spot size 50 μm, irradiation time 0.1 second, laser output 120 mW) was performed at 6 points while avoiding thick capillary in the retina. […]
At 7 days from the laser irradiation, under systemic anesthesia by intramuscular administration (1 mL/kg) of a ketamine hydrochloride/xylazine hydrochloride (1:1, v/v) mixed solution into the thigh, a 4% FITC-dextran solution was administered at 0.5 mL/animal from the tail vein. […] Using a confocal microscope (OLYMPUS FV-1000D; magnification: ×20, number of pixels: 512 pixel×512 pixel), CNV site in a flat mount specimen was photographed, and measured using an image analysis software (NIH ImageJ). […]

As for `Br.O=C(O)Cc1csc(SCC(=O)NC[C@H]2CN(Cc3ccc(Cl)c(Cl)c3)CCO2)n1` [test compound, (2S)-[4-(carboxymethyl)thiazol-2-ylthio]-N-{[4-(3,4-dichlorobenzyl)morpholin-2-yl]methyl}acetamide hydrobromide], the “CNV area after 7 days from laser irradiation (CNV suppressive effect)” value is “significant CNV suppressive effect”.
